# Measurements as given in patent publication US12544370B2, “Methods for cancer therapy” (ASCENTAGE PHARMA (SUZHOU) CO., LTD., priority 2018, dated 2026).
# Test system: TKI-resistant patients with chronic phase (CP) or accelerated phase (AP) CML
# Test: Phase I study, safety / treatment related adverse events (Example 1)
# Conditions: Example 1
# Excerpt: The eligible patients received treatments until disease progression or intolerable toxicities. The primary efficacy endpoint in the CML AP and CP patients, was complete hematological response (CHR) and major cytogenetic response (MCyR) respectively, MCyR includes partial cytogenetic response (PCyR) and complete cytogenetic response (CCyR). Blood samples were collected at various time points on Day 1-2 and Day 27-28 during cycle 1 for PK analyses.
# • 3 to 6 subjects in each dose group (traditional 3+3 dose increasing method) • Up to 15 subjects in the MTD dose group (safety and PK characteristics) • Dose extension studies: • Up to 60 subjects (CP/CML-AP) • Extended dose selection is based on initial safety and efficacy Study Endpoints Primary Endpoint
# [1] = treatment related AE, all patients
smiles,measurement,setting,value
"Cc1ccc(C(=O)Nc2ccc(CN3CCN(C)CC3)c(C(F)(F)F)c2)cc1C#Cc1cnc2[nH]ncc2c1 [compound of formula (I-A), 3-(2-(1H-pyrazolo[3,4-b]pyridin-5-yl)ethynyl)-4-methyl-N-(4-((4-methylpiperazin-1-yl)methyl)-3-(trifluoromethyl)phenyl)-benzamide]","Lipase increased leading to dose interruption/reduction, percent of cohort",40 mg (n = 37),(2.7%)
same,Thrombocytopenia leading to dose interruption/reduction,40 mg (n = 37),11 n
same,"Thrombocytopenia leading to dose interruption/reduction, percent of cohort",40 mg (n = 37),(30%)
same,ALT increased leading to dose interruption/reduction,45 mg (n = 3),0 n (%)
same,AST increased leading to dose interruption/reduction,45 mg (n = 3),0 n (%)
same,Amylase increased leading to dose interruption/reduction,45 mg (n = 3),0 n (%)
same,Anemia leading to dose interruption/reduction,45 mg (n = 3),0 n (%)
same,Atrial fibrillation leading to dose interruption/reduction,45 mg (n = 3),0 n (%)
same,Cardiomyopathy leading to dose interruption/reduction,45 mg (n = 3),0 n (%)
same,GGT increased leading to dose interruption/reduction,45 mg (n = 3),0 n (%)
same,Hyperkalemia leading to dose interruption/reduction,45 mg (n = 3),0 n (%)
same,Hypertriglyceridemia leading to dose interruption/reduction,45 mg (n = 3),0 n (%)
same,Hypocalcemia leading to dose interruption/reduction,45 mg (n = 3),0 n (%)
same,Lacunar infarction leading to dose interruption/reduction,45 mg (n = 3),0 n (%)
same,Lipase increased leading to dose interruption/reduction,45 mg (n = 3),0 n (%)
same,Thrombocytopenia leading to dose interruption/reduction,45 mg (n = 3),2(67%) n (%)
same,ALT increased leading to dose interruption/reduction,50 mg (n = 24),1 n
same,"ALT increased leading to dose interruption/reduction, percent of cohort",50 mg (n = 24),(4.2%)
same,AST increased leading to dose interruption/reduction,50 mg (n = 24),1 n
same,"AST increased leading to dose interruption/reduction, percent of cohort",50 mg (n = 24),(4.2%)
same,Amylase increased leading to dose interruption/reduction,50 mg (n = 24),0 n (%)
same,Anemia leading to dose interruption/reduction,50 mg (n = 24),0 n (%)
same,Atrial fibrillation leading to dose interruption/reduction,50 mg (n = 24),0 n (%)
same,Cardiomyopathy leading to dose interruption/reduction,50 mg (n = 24),0 n (%)
same,GGT increased leading to dose interruption/reduction,50 mg (n = 24),0 n (%)
same,Hyperkalemia leading to dose interruption/reduction,50 mg (n = 24),0 n (%)
same,Hypertriglyceridemia leading to dose interruption/reduction,50 mg (n = 24),0 n (%)
same,Hypocalcemia leading to dose interruption/reduction,50 mg (n = 24),1 n
same,"Hypocalcemia leading to dose interruption/reduction, percent of cohort",50 mg (n = 24),(4.2%)
same,Lacunar infarction leading to dose interruption/reduction,50 mg (n = 24),1 n
same,"Lacunar infarction leading to dose interruption/reduction, percent of cohort",50 mg (n = 24),(4.2%)
same,Lipase increased leading to dose interruption/reduction,50 mg (n = 24),1 n
same,"Lipase increased leading to dose interruption/reduction, percent of cohort",50 mg (n = 24),(4.2%)
same,Thrombocytopenia leading to dose interruption/reduction,50 mg (n = 24),8 n
same,"Thrombocytopenia leading to dose interruption/reduction, percent of cohort",50 mg (n = 24),(33%)
same,ALT increased leading to dose interruption/reduction,60 mg (n = 3),0 n (%)
same,AST increased leading to dose interruption/reduction,60 mg (n = 3),0 n (%)
same,Amylase increased leading to dose interruption/reduction,60 mg (n = 3),0 n (%)
same,Anemia leading to dose interruption/reduction,60 mg (n = 3),0 n (%)
same,Atrial fibrillation leading to dose interruption/reduction,60 mg (n = 3),0 n (%)
same,Cardiomyopathy leading to dose interruption/reduction,60 mg (n = 3),1(33%) n (%)
same,GGT increased leading to dose interruption/reduction,60 mg (n = 3),0 n (%)
same,Hyperkalemia leading to dose interruption/reduction,60 mg (n = 3),0 n (%)
same,Hypertriglyceridemia leading to dose interruption/reduction,60 mg (n = 3),0 n (%)
same,Hypocalcemia leading to dose interruption/reduction,60 mg (n = 3),0 n (%)
same,Lacunar infarction leading to dose interruption/reduction,60 mg (n = 3),0 n (%)
same,Lipase increased leading to dose interruption/reduction,60 mg (n = 3),0 n (%)
same,Thrombocytopenia leading to dose interruption/reduction,60 mg (n = 3),2(67%) n (%)
same,patients with dose-limiting toxicity (DLT),60 mg cohort,Two out of 3
same,patient withdrawal from the study because of TRAEs,70 patients,no patient withdrawal
same,maximum toxic dosage (MTD),QOD,50 mg
same,tolerability,median follow-up of 4.1 (1.0-21.2) cycles,well-tolerated in all dose cohorts other than the 60 mg cohort
same,"Alanine aminotransferase increased, Any grade",[1],29 (29%) n (%)
same,"Alanine aminotransferase increased, Grade 3-4",[1],2 (2.0%) n (%)
same,"Alanine aminotransferase increased, SAE",[1],0 n (%)
same,"Anaemia, Any grade",[1],10 (10%) n (%)
same,"Anaemia, Grade 3-4",[1],9 (9.0%) n (%)
same,"Anaemia, SAE",[1],2 (2.0%) n (%)
same,"Aspartate aminotransferase inceased, Any grade",[1],31 (31%) n (%)
same,"Aspartate aminotransferase inceased, Grade 3-4",[1],2 (2.0%) n (%)
same,"Aspartate aminotransferase inceased, SAE",[1],0 n (%)
same,"Blood bilirubin increased, Any grade",[1],28 (28%) n (%)
same,"Blood bilirubin increased, Grade 3-4",[1],1 (1.0%) n (%)
same,"Blood bilirubin increased, SAE",[1],0 n (%)
same,"Blood creatine phosphokinase increased, Any grade",[1],19 (19%) n (%)
same,"Blood creatine phosphokinase increased, Grade 3-4",[1],1 (1.0%) n (%)
same,"Blood creatine phosphokinase increased, SAE",[1],0 n (%)
same,"Hypertriglyceridaemia, Any grade",[1],51 (51%) n (%)
same,"Hypertriglyceridaemia, Grade 3-4",[1],4 (4.0%) n (%)
same,"Hypertriglyceridaemia, SAE",[1],0 n (%)
same,"Hypocalcaemia, Any grade",[1],31 (31%) n (%)
same,"Hypocalcaemia, Grade 3-4",[1],0 n (%)
same,"Hypocalcaemia, SAE",[1],0 n (%)
same,"Leukopenia, Any grade",[1],17 (17%) n (%)
same,"Leukopenia, Grade 3-4",[1],15 (15%) n (%)
same,"Neutropenia, Any grade",[1],2 (2.0%) n (%)
same,"Neutropenia, Grade 3-4",[1],0 n (%)
same,"Neutropenia, SAE",[1],0 n (%)
same,"Proteinuria, Any grade",[1],11 (11%) n (%)
same,"Proteinuria, Grade 3-4",[1],1 (1.0%) n (%)
same,"Proteinuria, SAE",[1],0 n (%)
same,"Skin hyperpigmentation, Any grade",[1],35 (35%) n (%)
same,"Skin hyperpigmentation, Grade 3-4",[1],0 n (%)
same,"Skin hyperpigmentation, SAE",[1],0 n (%)
same,"Thrombocytopenia, Any grade",[1],46 (46%) n (%)
same,"Thrombocytopenia, Grade 3-4",[1],45 (45%) n (%)
same,"Thrombocytopenia, SAE",[1],5 (5.0%) n (%)
same,"leukocytosis, Any grade",[1],9 (9.0%) n (%)
same,"leukocytosis, Grade 3-4",[1],8 (8.0%) n (%)
same,"leukocytosis, SAE",[1],0 n (%)
same,"leukopenia, SAE",[1],0 n (%)
